Experimental data from patent US11786497B2, “High penetration prodrug compositions of retinoids and retinoids-related compounds” (Techfields Pharma Co., Ltd., priority 2007, dated 2023).

Legend:
[1] = system: human acute promyelocytic leukemia(APL) line; assay: Survival of mice implanted with human acute promyelocytic leukemia line; format: in vivo; conditions: for None Disease Rate at day 160: animals out of 7; for Life Elongation Rate: control = 100; for Survival Period: n=7
From the text: For evaluation of antitumor activity, a human acute promyelocytic leukemia(APL) line derived from a patient with acute promyelocytic leukemia (APL) was implanted into mice.

[2] = system: Lesions similar to psoriasis induced by Malassezia; assay: Malassezia-induced lesions similar to psoriasis on rabbit skin; format: in vivo, Chinese white rabbits; conditions: 200 μl of 0.05% aqueous solution, topical twice per day, 3 hours after Malassezia; control lesions became worse
From the text: Heavy suspensions of Malassezia [Rosenberg, E. W., et al., Mycopathologia, 72, 147-154 (1980)] were applied to shaved skin on the backs of Chinese white rabbits (n=4×10) twice (at 7 am and 7 pm respectively) per day for 2 weeks. […] The control group was only applied with Malassezia.

[3] = In vitro penetration across human skin in modified Franz cells
Protocol: In each case, the vehicle was a pH 7.4 phosphate buffer (0.2 M).
Penetration rates of HPPs and their parent drugs through human skin were measured in vitro by modified Franz cells. A Franz cell had two chambers, the top sample chamber and the bottom receiving chamber. The human skin tissue (360-400 μm thick) that separated the top and the receiving chambers was isolated from the anterior or posterior thigh areas.
A compound tested (0.2 mL, 5% in 0.2 M phosphate buffer, pH 7.4) were added to the sample chamber of a Franz cell. The receiving chamber contains 2 ml of 2% bovine serum albumin in saline which was stirred at 600 rpm. The amount of the tested compound penetrating the skin was determined by high-performance liquid chromatography (HPLC) method.

[4] = Irritative effect or discomfort on skin of mice after topical application; format: in vivo; conditions: 0.1 ml of 0.5% in pH 7.4 phosphate buffer to back of nude mice twice per day, 1 week
Protocol: Irritative effect or discomfort in the skin of mice of HPPs of retinoids or retinoid-related compounds was evaluated during a period of 1 week after the topical application of 0.1 ml of 0.5% of the respective test drug in pH 7.4 phosphate buffer (0.2 M) to the back of nude mice twice per day.

[5] = Conversion of HPPs to parent drugs in human plasma (half life); format: in vitro ADME; conditions: 37° C., HPLC
Protocol: HPPs of retinoids or retinoid-related compounds converted to the parent retinoids or retinoid-related compounds quickly in good yield in human plasma.
A HPP of retinoids or retinoid-related compound (10 mg) was dissolved in 0.1 ml of 0.2M pH 7.4 phosphate buffer. 1 ml of human plasma, preheated to 37° C., was added into the mixture. The mixture was kept in a water bath at 37° C., and at every 2 min intervals 0.2 ml of samples were withdrawn and added to 0.4 ml of methanol to precipitate the plasma protein. The samples were centrifuged for 5 min and analyzed by HPLC.

[6] = system: human breast cancer cells (BCAP-37); assay: Antitumor activity against human breast cancer cells implanted into nude mice; format: in vivo, nude mice (BALB); conditions: 50 μl of 1% in 0.2M pH 7.4 phosphate buffer, topically to implanted area twice per day from day 3; control 100% incidence
From the text: For evaluation of antitumor activity of these prodrugs, human breast cancer cells (BCAP-37) were implanted into nude mice (BALB). […] The average weight of the treated group was 25 grams and that of the control group was 21 grams.

Solubility in water = format: physicochemical
Protocol: 30 g (0.1 mol) of sodium 9-cis-retinoate was dissolved in 100 ml of acetonitrile. 26.1 g (0.1 mol) of 2-Bromo-N,N-diethylethylamine·HBr was added into the reaction mixture. The mixture was stirred for overnight at RT. The solvents were evaporated off. 200 ml of ethanol was added into the residue. The solid was removed by filtration. The solution was evaporated to dryness. 100 ml of ethyl acetate was added into the reaction mixture. Hexane (100 ml) was added. The solid product was collected by filtration. After drying, it yielded 36 g of the desired product (75%). Hygroscopic product; solubility in water: 30 mg/ml; elementary analysis: C26H42BrNO2; MW: 480.52; calculated % C: 64.99; H: 8.81; Br: 16.63; N: 2.91; O: 6.66; found % C: 65.03; H: 8.80; Br: 16.60; N: 2.89; O: 6.68.
30 g (0.1 mol) of sodium 13-cis-retinoate was dissolved in 100 ml of acetonitrile. 26.1 g (0.1 mol) of 2-Bromo-N,N-diethylethylamine·HBr was added into the reaction mixture. The mixture was stirred for overnight at RT. The solvents were evaporated off. 200 ml of ethanol was added into the residue. The solid was removed by filtration. The solution was evaporated to dryness. 100 ml of ethyl acetate was added into the reaction mixture. Hexane (100 ml) was added. The solid product was collected by filtration. After drying, it yielded 36 g of the desired product (75%). […]

[7] = 10 mg/kg per day, transdermally
[8] = parent compound, 5% suspension in pH 7.4 phosphate buffer (0.2 M), isolated human skin, Franz cells, n=5

## C=C(c1ccc(C(=O)OCN2CCCC2)cc1)c1cc2c(cc1C)C(C)(C)CCC2(C)C.Cl
[1]; 5 mg/kg per day, transdermally
  None Disease Rate at day 160: 5/7
  Life Elongation Rate: 306%
  Survival Period: 96.5 ± 4.4 days
[1]; [7]
  None Disease Rate at day 160: 6/7
  Life Elongation Rate: 529%
  Survival Period: 166.5 ± 5.4 days

## Br.CC1=C(/C=C/C(C)=C/C=C/C(C)=C/C(=O)OCCN2CCCCC2)C(C)(C)CCC1
[1]; 5 mg/kg per day, transdermally
  None Disease Rate at day 160: 4/7
  Life Elongation Rate: 278%
  Survival Period: 87.8 ± 3.4 days
[1]; [7]
  None Disease Rate at day 160: 5/7
  Life Elongation Rate: 429%
  Survival Period: 135.2 ± 5.9 days
[2]
  lesions 10 days after application of Malassezia and HPP: resolved

## Br.CC1=C(/C=C/C(C)=C\C=C\C(C)=C\C(=O)OCCN2CCCCC2)C(C)(C)CCC1 [9-cis-retinoic acid 1-piperidineethyl ester·HBr]
[3]; HPP, 5% solution in pH 7.4 phosphate buffer (0.2 M), isolated human skin, Franz cells, n=5
  In vitro Penetration Rate (apparent flux) of HPPs: 0.67 mg/cm^2/h

## Br.CC1=C(/C=C/C(C)=C\C=C\C(C)=C\C(=O)OCC2CCCN2)C(C)(C)CCC1 (stereo not drawn) [9-cis-retinoic acid 2-pyrrolidinemethyl ester·HBr]
[1]; 5 mg/kg per day, transdermally
  None Disease Rate at day 160: 3/7
  Life Elongation Rate: 230%
  Survival Period: 72.5 ± 4.6 days
[1]; [7]
  None Disease Rate at day 160: 5/7
  Life Elongation Rate: 385%
  Survival Period: 121.2 ± 4.8 days

## CC1=C(/C=C/C(C)=C\C=C\C(C)=C\C(=O)O)C(C)(C)CCC1 [9-cis-retinoic acid (alitretinoin), 9-cis-retinoic acid, reference compound]
[3]; [8]
  In vitro Penetration Rate (apparent flux) of Parent compounds: 0.005 mg/cm^2/h
[1]; 5 mg/kg per day, orally
  None Disease Rate at day 160: 1/7
  Life Elongation Rate: 144%
  Survival Period: 45.5 ± 2.3 days
[1]; 10 mg/kg per day, orally
  None Disease Rate at day 160: 3/7
  Life Elongation Rate: 207%
  Survival Period: 65.2 ± 4.1 days

## CC1=C(/C=C/C(C)=C/C=C/C(C)=C\C(=O)O)C(C)(C)CCC1 [13-cis-retinoic acid (isotretinoin), 13-cis-retinoic acid]
[3]; [8]
  In vitro Penetration Rate (apparent flux) of Parent compounds: 0.005 mg/cm^2/h

## C=C(c1ccc(C(=O)OCCN(CC)CC)cc1)c1cc2c(cc1C)C(C)(C)CCC2(C)C.Cl [N,N-diethylaminoethyl 4-[1-(5,6,7,8-tetrahydro-3,5,5,8,8-pentamethyl-2-naphthalenyl)ethenyl]benzoate·HCl]
[3]; pH 7.4
  In vitro Penetration Rate (apparent flux) of HPPs: 0.35 mg/cm^2/h
[4]
  signs of irritative effect or discomfort: None of any signs of irritative effect or discomfort
[5]
  Half life of HPPs in plasma: 15 ± 1 min
[6]
  tumor seen after 20 days: none of tumor was seen

## Br.CCN(CC)CCOC(=O)/C=C(C)/C=C/C=C(C)\C=C\C1=C(C)CCCC1(C)C [N,N-diethylaminoethyl 9-cis-retinoate·HBr]
Solubility in water
  solubility in water: 30 mg/mL
[4]
  signs of irritative effect or discomfort: None of any signs of irritative effect or discomfort
[5]
  Half life of HPPs in plasma: 12 ± 1 min
[6]
  tumor seen after 20 days: none of tumor was seen
[2]
  lesions 10 days after application of Malassezia and HPP: resolved

## Br.CCN(CC)CCOC(=O)\C=C(C)/C=C/C=C(C)/C=C/C1=C(C)CCCC1(C)C [N,N-diethylaminoethyl 13-cis-retinoate·HBr]
Solubility in water
  solubility in water: 30 mg/mL
[3]; pH 7.4
  In vitro Penetration Rate (apparent flux) of HPPs: 0.85 mg/cm^2/h
[4]
  signs of irritative effect or discomfort: None of any signs of irritative effect or discomfort
[5]
  Half life of HPPs in plasma: 13 ± 1 min

## Br.CCN(CC)CCOC(=O)/C=C(C)/C=C/C=C(C)/C=C/C1=C(C)CCCC1(C)C [N,N-diethylaminoethyl all-trans-retinoate·HBr]
[3]; pH 7.4
  In vitro Penetration Rate (apparent flux) of HPPs: 1.25 mg/cm^2/h
[4]
  signs of irritative effect or discomfort: None of any signs of irritative effect or discomfort
[5]
  Half life of HPPs in plasma: 11 ± 1 min

## CC1=C(/C=C/C(C)=C/C=C/C(C)=C/C(=O)O)C(C)(C)CCC1 [all-trans-retinoic acid (tretinoin), all-trans-retinoic acid, reference compound]
[3]; [8]
  In vitro Penetration Rate (apparent flux) of Parent compounds: 0.005 mg/cm^2/h
[1]; 5 mg/kg per day, orally
  None Disease Rate at day 160: 0/7
  Life Elongation Rate: 158%
  Survival Period: 49.7 ± 3.6 days
[1]; 10 mg/kg per day, orally
  None Disease Rate at day 160: 2/7
  Life Elongation Rate: 249%
  Survival Period: 78.5 ± 3.7 days

## C=C(c1ccc(C(=O)O)cc1)c1cc2c(cc1C)C(C)(C)CCC2(C)C [bexaroten (Targretin ®), reference compound]
[3]; lowest detectable flux 1 μg/cm^2/h, considered not detectable
  apparent flux value of parent drug: 1 μg/cm^2/h
[3]; [8]
  In vitro Penetration Rate (apparent flux) of Parent compounds: 0.001 mg/cm^2/h
[1]; 5 mg/kg per day, orally
  None Disease Rate at day 160: 3/7
  Life Elongation Rate: 205%
  Survival Period: 64.5 ± 3.7 days
[1]; 10 mg/kg per day, orally
  None Disease Rate at day 160: 5/7
  Life Elongation Rate: 302%
  Survival Period: 95.2 ± 3.9 days

## CC1=C(/C=C/C(C)=C/C=C/C(C)=C/COC(=O)CN(C)C)C(C)(C)CCC1.Cl [retinyl N,N-dimethyl-2-aminoacetate·HCl]
[3]; pH 7.4
  In vitro Penetration Rate (apparent flux) of HPPs: 1.21 mg/cm^2/h
[4]
  signs of irritative effect or discomfort: None of any signs of irritative effect or discomfort
[5]
  Half life of HPPs in plasma: 20 ± 1 min

## CC1=C(/C=C/C(C)=C/C=C/C(C)=C/CO)C(C)(C)CCC1 [vitamin A (retinol), retinol]
[3]; human, 5 %, pH 7.4
  In vitro Penetration Rate (apparent flux) of Parent compounds: 0.005 mg/cm^2/h
